# Data taken from patent US12390441B2, “Immunomodulating o-het/aryl azalides” (Zoetis Services LLC, priority 2020, dated 2025).
# Assays:
# Experiment in all cases: Whole blood assay, LPS stimulation, MSD cytokine detection
# TNF-α = assay type: cell-based; details: fresh whole bovine blood
# Procedure: (§1) Compounds of the invention were evaluated against a positive control for their ability to inhibit LPS-induced IL-1p and TNF-α as an overall evaluation of relative potency and modulation of target pathways.
# (§2) In the bovine whole blood in vitro screening assay the inhibition of TNFα as induced by stimulation by lipopolysaccharide (LPS) and as measured by half the maximal inhibitory concentration (IC50) is recognized as the primary biomarker of immunomodulation potency upon pretreatment with the compounds of the invention. IL-1β is a mediator of the inflammation response and is involved in a number of cellular activities including proliferation, differentiation and apoptosis. IL-1β is also released upon cellular stress or cytotoxicity or upon TLR stimulation. In the bovine whole blood assay the stimulation of IL-1β release upon increasing concentration of test compound is seen as a potential cellular toxicity signal as induced by the test compound. In order to estimate a therapeutic index from the in vitro assay a differential between the TNFα IC50 (immunomodulation potency) versus the perceived cellular toxicity concentration (IL-1β release or overstimulation) was utilized. […] As the in vitro assay index approaches 1 it is proposed that the balance between immunomodulation and cytotoxicity would be too narrow in order to achieve an efficacious dose in vivo.
# IL-6 = assay type: cell-based; details: fresh whole bovine blood
# IL-1β = assay type: cell-based, bovine; details: fresh whole bovine blood, LPS stimulation; drug concentration giving overstimulation (OS) of IL-1β
# Procedure: as §1, §2
Compound,IC50 (TNF-α) [µM],IC50 (IL-6) [µM],IL-1ß OS of LPS (IL-1β) [µM]
CC[C@H]1OC(=O)[C@H](C)[C@@H](O[C@H]2C[C@@](C)(OC)[C@@H](O)[C@H](C)O2)[C@H](C)[C@@H](O[C@@H]2O[C@H](C)C[C@H](NC)[C@H]2Oc2cccc(S(=O)(=O)CC)c2)[C@](C)(O)C[C@@H](C)CN(C)[C@H](C)[C@@H](O)[C@]1(C)O [Example A-41],5,19,16
CC[C@H]1OC(=O)[C@H](C)[C@@H](O[C@H]2C[C@@](C)(OC)[C@@H](O)[C@H](C)O2)[C@H](C)[C@@H](O[C@@H]2O[C@H](C)C[C@H](N(C)C)[C@H]2Oc2cnc(Cl)cc2C)[C@](C)(O)C[C@@H](C)CN(C)[C@H](C)[C@@H](O)[C@]1(C)O [Example A-45],4,12,40
CC[C@H]1OC(=O)[C@H](C)[C@@H](O)[C@H](C)[C@@H](O[C@@H]2O[C@H](C)C[C@H](N(C)C(=O)N(C)c3ncccn3)[C@H]2Oc2ccccc2)[C@](C)(O)C[C@@H](C)CN(C)[C@H](C)[C@@H](O)[C@]1(C)O [Example C-17],38,63,44
CC[C@H]1OC(=O)[C@H](C)[C@@H](O)[C@H](C)[C@@H](O[C@@H]2O[C@H](C)C[C@H](N(C)C(=O)N(C)C3CCC3)[C@H]2Oc2ccccc2)[C@](C)(O)C[C@@H](C)CN[C@H](C)[C@@H](O)[C@]1(C)O [Example C-21],28,18,8
CC[C@H]1OC(=O)[C@H](C)[C@@H](O)[C@H](C)[C@@H](O[C@@H]2O[C@H](C)C[C@H](N(C)C(=O)N(C)c3ncccn3)[C@H]2Oc2ccccc2)[C@](C)(O)C[C@@H](C)CN(C)[C@H](C)[C@@H](O)[C@]1(C)O [Example C-22],94,151,100
CC[C@H]1OC(=O)[C@H](C)[C@@H](O)[C@H](C)[C@@H](O[C@@H]2O[C@H](C)C[C@H](N(C)C(=O)N(C)C)[C@H]2Oc2ccc(F)cc2C)[C@](C)(O)C[C@@H](C)CN[C@H](C)[C@@H](O)[C@]1(C)O [Example C-25],59,25,40
CC[C@H]1OC(=O)[C@H](C)[C@@H](O)[C@H](C)[C@@H](O[C@@H]2O[C@H](C)C[C@H](N(C)C(=O)N(C)c3ccccc3)[C@H]2Oc2ccc(Cl)nc2)[C@](C)(O)C[C@@H](C)CN[C@H](C)[C@@H](O)[C@]1(C)O [Example C-33],6,< 1,16
CC[C@H]1OC(=O)[C@H](C)[C@@H](O)[C@H](C)[C@@H](O[C@@H]2O[C@H](C)C[C@H](N(C)C(=O)N(C)c3ccccc3)[C@H]2Oc2ccc(OC)c(OC(C)C)c2)[C@](C)(O)C[C@@H](C)CN[C@H](C)[C@@H](O)[C@]1(C)O [Example C-34],28,16,16
CC[C@H]1OC(=O)[C@H](C)[C@@H](O)[C@H](C)[C@@H](O[C@@H]2O[C@H](C)C[C@H](N(C)C(=O)N(C)c3ccccc3)[C@H]2Oc2ccc3ncccc3c2)[C@](C)(O)C[C@@H](C)CN(C)[C@H](C)[C@@H](O)[C@]1(C)O [Example C-35],12,18,>250
CCOc1cccc(O[C@H]2[C@H](O[C@@H]3[C@@H](C)[C@H](O)[C@@H](C)C(=O)O[C@H](CC)[C@@](C)(O)[C@H](O)[C@@H](C)NC[C@H](C)C[C@@]3(C)O)O[C@H](C)C[C@@H]2N(C)C(=O)N(C)c2ccc(N(C)C)cc2)c1 [Example C-36],2,10,16
CCOc1cccc(O[C@H]2[C@H](O[C@@H]3[C@@H](C)[C@H](O)[C@@H](C)C(=O)O[C@H](CC)[C@@](C)(O)[C@H](O)[C@@H](C)NC[C@H](C)C[C@@]3(C)O)O[C@H](C)C[C@@H]2N(C)C(=O)N(C)c2ccccc2)c1 [Example C-37],5,< 1,16
CC[C@H]1OC(=O)[C@H](C)[C@@H](O)[C@H](C)[C@@H](O[C@@H]2O[C@H](C)C[C@H](N(C)C(=O)N(C)c3ccccc3)[C@H]2Oc2ccccc2Cl)[C@](C)(O)C[C@@H](C)CN[C@H](C)[C@@H](O)[C@]1(C)O [Example C-38],5,26,16
CC[C@H]1OC(=O)[C@H](C)[C@@H](O)[C@H](C)[C@@H](O[C@@H]2O[C@H](C)C[C@H](N(C)C(=O)N(C)c3ccccc3)[C@H]2Oc2cc(F)c(OC)c(F)c2)[C@](C)(O)C[C@@H](C)CN[C@H](C)[C@@H](O)[C@]1(C)O [Example C-42],5,12,16
CC[C@H]1OC(=O)[C@H](C)[C@@H](O)[C@H](C)[C@@H](O[C@@H]2O[C@H](C)C[C@H](N(C)C(=O)N(C)c3ccc(C#N)cc3)[C@H]2Oc2ccccc2Cl)[C@](C)(O)C[C@@H](C)CN[C@H](C)[C@@H](O)[C@]1(C)O [Example C-43],21,32,16
CC[C@H]1OC(=O)[C@H](C)[C@@H](O)[C@H](C)[C@@H](O[C@@H]2O[C@H](C)C[C@H](N(C)C(=O)N(C)c3ccccc3)[C@H]2Oc2cc(F)c(OC)c(F)c2)[C@](C)(O)C[C@@H](C)CN(C)[C@H](C)[C@@H](O)[C@]1(C)O [Example C-49],181,136,6
CC[C@H]1OC(=O)[C@H](C)[C@@H](O)[C@H](C)[C@@H](O[C@@H]2O[C@H](C)C[C@H](N(C)C(=O)N3CCOc4ccccc43)[C@H]2Oc2ccccc2)[C@](C)(O)C[C@@H](C)CN(C)[C@H](C)[C@@H](O)[C@]1(C)O [Example D-2],40,148,16
CC[C@H]1OC(=O)[C@H](C)[C@@H](O)[C@H](C)[C@@H](O[C@@H]2O[C@H](C)C[C@H](N(C)C(=O)N3CCOc4ccccc43)[C@H]2Oc2ccccc2)[C@](C)(O)C[C@@H](C)CN[C@H](C)[C@@H](O)[C@]1(C)O [Example D-3],20,50,16
CC[C@H]1OC(=O)[C@H](C)[C@@H](O[C@H]2C[C@@](C)(OC)[C@](O)(CNCC3CC3)[C@H](C)O2)[C@H](C)[C@@H](O[C@@H]2O[C@H](C)C[C@H](N(C)C)[C@H]2Oc2ccc(F)cc2)[C@](C)(O)C[C@@H](C)CN[C@H](C)[C@@H](O)[C@]1(C)O [Example E-37],6,17,16
CC[C@H]1OC(=O)[C@H](C)[C@@H](O[C@H]2C[C@@](C)(OC)[C@](O)(CNn3ccnc3)[C@H](C)O2)[C@H](C)[C@@H](O[C@@H]2O[C@H](C)C[C@H](N(C)C)[C@H]2Oc2ccccc2)[C@](C)(O)C[C@@H](C)CN[C@H](C)[C@@H](O)[C@]1(C)O [Example E-40],11,55,40
CCCNC[C@]1(O)[C@H](C)O[C@@H](O[C@H]2[C@H](C)[C@@H](O[C@@H]3O[C@H](C)C[C@H](N(C)C)[C@H]3Oc3ccc4ncccc4c3)[C@](C)(O)C[C@@H](C)CN[C@H](C)[C@@H](O)[C@](C)(O)[C@@H](CC)OC(=O)[C@@H]2C)C[C@@]1(C)OC [Example E-69],19,68,16
